The source of these data is US20070021418A1, “Method of inhibiting production of osteopontin” (Kowa Co., LTD., priority 2003, published 2007).

The test system of this assay is OPN production in RPMI8226 cells. Kind of assay: OPN production inhibiting effect in cultured RPMI8226 cells (ELISA of culture supernatant). Type of assay: cell-based, human. As to conditions: RPMI8226 myeloma cells, 3 days prophase + 3 days anaphase culture, 0.1-10 μmol/L, OPN in culture supernatant by ELISA, logistic curve, read-out: IC50 (OPN production inhibition). On the procedure: Compounds 1 to 6 were separately dissolved in dimethylsulfoxide (DMSO) to prepare 20 mmol/L solutions of the respective compounds. Aliquots of those solutions were diluted further to prepare 6, 2, 0.6 and 0.2 mmol/L solutions of the respective compounds. The DMSO solutions of the respective compounds (1 to 6) (concentrations: 0.2 to 20 mmol/L) and DMSO (as a compound non-addition group) were separately diluted 1,000-fold with a culture medium (10% fetal-bovine-serum (FBS)-added RPMI-1640 medium) to prepare 0 (non-addition group), 0.2, 0.6, 2, 6 and 20 μmol/L solutions of the respective compounds (1-6).
3) Study on the OPN Production Inhibiting Effect of the Individual Compounds in RPMI8226 Cells
A 2×10^5 cells/mL cell suspension of RPMI8226 cells was prepared, and was seeded 2 mL by 2 mL per well on a 6-well plates. To the wells, the individual solutions prepared in the procedure 2) (the solutions of Compounds 1 to 6, having concentrations of 0 (non-addition group), 0.2, 0.6, 2, 6, and 20 μmol/L, respectively) were added 2 mL by 2 mL per well, followed by mixing to bring the final concentrations of Compound 1-6 in the individual wells to 0 (non-added group), 0.1, 0.3, 1, 3 and 10 μmol/L. The cells of those conditions were cultured as prophase culture at 37° C. for 3 days in the presence of 5% CO2.
After the above-described culture, the cells in the respective wells were collected, and were counted well by well. Those cells were again suspended separately in aliquots of a 2×10^5 cells/mL suspension, and the cells of the respective conditions were each seeded 0.5 mL by 0.5 mL per well in two wells. To the wells of the respective conditions, individual solutions prepared at the same concentrations as those at the time of the culture in a similar manner as in the prophase culture (individual solutions of Compounds 1 to 6, having concentrations of […], respectively) were added 0.5 mL by 0.5 mL per sell to the individual wells. After mixing, the cells were cultured as anaphase culture at 37° C. for 3 days in the presence of 5% CO2.
Subsequent to the completion of the anaphase culture, culture supernatants were separately collected from the respective wells, and the OPN concentrations in the individual culture supernatants were quantitated with an absorptiometer by ELISA (Human Osteopontin Measurement Kit IBL; IBL Co., Ltd.).
Using the SAS Preclinical Package, Version 5.0, the measurement values were analyzed by the following procedure. Described specifically, the concentrations were logarithmically converted (the compound non-addition group (0 μmol/L) was replaced by 1 pmol/L), and using the measurement values (6 concentrations, 2 measurement values per concentration, 12 measurement values in total), plotting into a logistic curve was conducted. From the curve, concentrations (IC50) which give 50% reactivity were calculated.

Where two headings read alike, the source gives them in different places.

Regarding `CSc1ccc(-c2nn(Cc3ccccn3)c(=S)cc2-c2ccc(Cl)cc2)cc1` [Compound 1, 5-(4-chlorophenyl)-6-[4-(methylthio)phenyl]-2-(2-pyridylmethyl)-2H-pyridazine-3-thione methanesulfonate], the half-maximal inhibitory concentration (IC50) (Homo sapiens, RPMI-8226, 72 h) was determined as 2090 nM.
Still for that read-out and setting: in the case of `COc1ccc(-c2cc(=O)n(CC=Cc3ccc(Cl)cc3)nc2-c2ccc(OC)cc2)cc1` [Compound 3, 5,6-bis(4-methoxyphenyl)-2-(4-chlorocinnamyl)-2H-pyridazin-3-one] it was 2760 nM; in that of `CSc1ccc(-c2nn(Cc3ccccc3)c(=O)cc2-c2ccc(Cl)cc2)cc1` [Compound 4, 2-benzyl-5-(4-chlorophenyl)-6-[4-(methylthio)phenyl]-2H-pyridazin-3-one], 2560 nM; in that of `CCn1nc(-c2ccc(OC)cc2)c(-c2ccc(OC)cc2)cc1=O` [Compound 6, 5,6-bis(4-methoxyphenyl)-2-ethyl-2H-pyridazin-3-one], 1120 nM.
With `CSc1ccc(-c2nn(Cc3cccnc3)c(=O)cc2-c2ccc(Cl)cc2)cc1` [Compound 2, 5-(4-chlorophenyl)-6-[4-(methylthio)phenyl]-2-(3-pyridylmethyl)-2H-pyridazin-3-one methanesulfonate], where the note is “Homo sapiens, RPMI-8226, 72 h”, the IC50 stood at 2910 nM.
As to `COc1ccc(-c2nn(Cc3ccc(Cl)cc3)c(=O)cc2-c2ccncc2)cc1` [Compound 5], the half-maximal inhibitory concentration (IC50) was 2420 nM.
